{"source": "patent US20050100563A1", "about": "“Antifungal compositions and methods of treatment therewith” (priority 2001, published 2005)", "origin": "cited, not measured here", "conditions": "in water; stated in parentheses, no measurement described", "data": [{"smiles": "[O]=[Sn]([F])[F]", "note": "[stannic oxyfluoride]", "values": [{"measurement": "solubility", "value": "approximately 0.3%"}]}]}
